Measurements: patent US10583119B2, “Compounds, compositions and methods for making the same” (Signum Biosciences, Inc., priority 2008, dated 2020)
One block for each compound: values may come before it.

What was measured:
[1] = molecular target: T1, protein phosphatase 2A specific methyltransferase (MTase) (Homo sapiens, UniProt Q9UIC8); assay: PP2A methylation in 96-well plate format (methyltransferase activity); format: biochemical; details: purified PP2A, MTase and [3H]-SAM; read-out: MT (IC50)
T1 construct: His; made in house
Description: Purified PP2A, MTase and [^3H]-SAM, were incubated in reaction buffer at 37° C. At the end of the reaction, mixture was added onto the membranes of 96-well filter plate (Multiscreen™, Millipore). The membranes were then pre-wetted with 70% ethanol (50 μL/well) and then subsequently washed with water (2×200 μL/well). The reaction in each well was terminated and the proteins (5 μL-20 μL) were precipitated by adding 25% ice-cold TCA. The plate was kept on ice for 30 minutes to ensure completion of protein precipitation. Excess of the free SAM was then removed by washing with 5% cold TCA ([…]) and 70% cold ethanol (2×100 μL/well). Membranes were air-dried, radioactivity in each well was counted by TopCount^NXT scintillation counter (Packard) with 25 μL/well of Microsinct™ 20 (PerkinElmer).

PP2A [2] = molecular target: T2, PP2A (Homo sapiens, UniProt P67775); assay: Phosphatase activity of PP2A using phosphorylase a as substrate; format: biochemical; details: un-methylated PP2A, protein substrate phosphorylase a, absence of ME and MT
T2 construct: made in house
Description: After the reaction, proteins were precipitated by 50% (NH4)2SO4 (final concentration) twice, and collected by centrifugation. The pellet was re-dissolved and dialyzed in a buffer containing 50 mM Tris-HCl (pH6.9) and ImM DTT for 2×2 L at 4° C. overnight. Phosphorylase a (phospho-phosphorylase b) crystallized during the dialysis. The dialysate was centrifuged 14,000 r.p.m at 4° C. for 30 minutes, the supernatant was removed and purified ^32P-labelled phosphorylase a was re-dissolved in +50% glycerol, and stored at −20° C.
To measure PP2A's phosphatase activity, PP2A (5-20 nM) was incubated with phosphorylase a (5-10 μM) at 37° C. 10% TCA (final concentration) and was added to the reaction to precipitate proteins. Supernatant that contains free ^32P-phosphate group was added into scintillation counting solution (Ecoscint, National Diagnostics), and counted by scintillation counter (LS 6000SE, Beckman).

phosphorylated Tau = assay: Phosphorylated tau in vivo at four weeks (pS396 Western blot of brain); set-up: species or system mice; details: 0.1% in chow, phospho-Serine 396
Description: Swiss Webster mice (9-12 weeks old) were fed ad libitum, either standard rodent chow (Control), or rodent chow formulated with 0.1 g Compound I-63 per 100 g chow (0.1% Compound I-63) or 0.1 g Compound I-62 per 100 g chow (0.1% Compound I-62); water was changed weekly. Mice were housed at 23° C., on a 12 hour light and dark cycle, with 6 mice per cage. At 4 weeks, six mice from the Control, 0.1% Compound I-63 and 0.1% Compound I-62 groups were sacrificed by cervical dislocation, brains removed, snap-frozen in liquid nitrogen, and stored at −80° C. Brains were homogenized in 350 pi of buffer containing 20 mM MOPS-Na, pH 7.2, 1 mM EDTA/DTT, 0.5 mg/L of aprotinin, leupeptin and pepstatin, 100 nM okadaic acid, and clarified by centrifugation (14000 rpm, 10 min, 4° C.). Supernatant protein concentrations were measured by the Bradford method, 4 volumes of the supernatant and 1 volume of 5×SDS sample buffer were mixed and boiled for 2 minutes. Boiled homogenate ([…]) were loaded on 12% polyacrylamide gels, and transferred to nitrocellulose membranes. […] Protein bands were detected with the ECL Plus reagent (GE Healthcare) and blots scanned on a Molecular Dynamics Storm Imager. […]

PP2A [3] = molecular target: T2, PP2A; assay: Phosphatase activity of PP2A using pNPP as substrate; format: biochemical; details: un-methylated PP2A, non-protein substrate pNPP, absence of ME and MT
Description: PP2A (10-200 nM) and pNPP (5-10 mM, Sigma) were mixed into 96-well plate (Fisher Scientific Inc.) in 50 μL of the buffer required. Reactions were performed at room temperature, and fully stopped by adding equal volume of 0.1 M EDTA. Production of p-nitrophenol […] was quantified by absorbance of reaction mixtures at 405 nm using the VMax® microplate reader (Molecular Devices).

[4] = molecular target: T3, protein phosphatase specific protein methylesterase (MEase) (Homo sapiens, UniProt Q9Y570); assay: PP2A demethylation with [3H]-SAM and purified proteins (methylesterase activity); format: biochemical; details: purified methylated PP2A and MEase; read-out: ME (IC50)
T3 construct: made in house
T3 sequence (Q9Y570 1-386): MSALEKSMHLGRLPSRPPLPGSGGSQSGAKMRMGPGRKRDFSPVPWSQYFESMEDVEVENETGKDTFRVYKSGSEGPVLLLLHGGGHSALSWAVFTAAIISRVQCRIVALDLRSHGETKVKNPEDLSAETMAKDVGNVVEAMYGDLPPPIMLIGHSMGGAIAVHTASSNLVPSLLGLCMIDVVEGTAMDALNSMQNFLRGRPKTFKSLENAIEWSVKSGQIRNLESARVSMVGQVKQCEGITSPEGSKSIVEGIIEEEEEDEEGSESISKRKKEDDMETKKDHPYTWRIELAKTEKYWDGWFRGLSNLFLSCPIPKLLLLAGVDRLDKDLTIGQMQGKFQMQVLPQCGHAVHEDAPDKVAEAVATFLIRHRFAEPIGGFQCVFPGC
Description: PP2A (methylated and unmethylated) were eluted with 1.6 mL of Buffer A containing 350 mM NaCl. Fractions (0.2 mL each) were collected and the radioactivity in each fraction was measured using the scintillation counter (LS 6000SE, Beckman). Fractions with highest radioactivity were containing purified methylated PP2A were pooled with a total volume of 0.6 mL-0.8 mL. Purified methylated PP2A (50 nM-100 nM) was incubated with MEase (5 nM-20 nM) in 20 μl-50 μl reaction at room temperature for 30 minutes. The reaction was terminated by adding TCA (2 μl-6 μl) to a final concentration of 10%. Released [^3H]-methanol in supernatants was counted with scintillation counter (LS 6000SE, Beckman).

Ob/Ob Mice = assay: Non-fasted glucose levels in ob/ob mice; format: in vivo; details: homozygous obese mice, compound in diet for 14 days
Description: They are also hypometabolic and hypothermic. The obesity is characterized by an increase in both the number and the size of adipocytes. Although hyperphagia contributes to the obesity, homozygotes gain excess weight and deposit excess fat even when restricted to a diet sufficient for normal weight maintenance in lean mice. Mice heterozygous for the Lep^ob mutation appear like wild-type and are lean.
Forty-eight (48) B6.V-Lep^ob/J mice (00632, The Jackson Laboratory, JAX^6 mice), homozygous for the Lep^ob mutation and thirty six (36) controls B6.V-Lep^ob/J-lean, heterozygous for the Lep^ob mutation were used to study the effect of SIG1012 on non-fasted glucose levels. The mice were ear notched for identification and housed in individually and positively ventilated polycarbonate cages with HEPA filtered air at a density of 3 mice per cage. Bed-o-cob corn cob bedding was used and cages were changed every two weeks. The animal room was lighted entirely with artificial fluorescent lighting, with a controlled 12 h light/dark cycle (7 am to 7 pm light). The normal temperature and relative humidity ranges in the animal rooms were 22±4° C. and 50±15%, respectively. The animal rooms were set to have 15 air exchanges per hour. Filtered tap water, acidified to a pH of 2.8 to 3.2, and LabDiet AIN-76A was provided ad libitum.
Following acclimation, mice were assigned to groups A through G according to their body weight and genotype:
A Lean heterozygotes—B6.V-Lep^ob/J-lean Mice Fed Control Diet (AIN-76A);
B Lean heterozygotes—B6.V-Lep^ob/J-lean Mice Fed “Low” Compound I-63 (AIN-76A with 0.001% Compound I-63);
C Lean heterozygotes—B6.V-Lep^ob/J-lean Mice Fed “Medium” Compound I-63 (AIN-76A with 0.1% Compound I-63);
D Obese homozygotes—B6. V-Lep^ob/J Mice Fed Control Diet (AIN-76A);
E Obese homozygotes—B6N-Lep^ob/J Mice Fed “Low” Compound I-63 (AIN-76A with 0.001% Compound I-63); […]
Mice from Groups A through G were maintained on the respective diet for 14 days and blood glucose levels were measured weekly.

[5] = test system: alpha-synuclein phosphorylated at Ser129; assay: Effect of PP2A methylation on alpha-synuclein dephosphorylation; format: biochemical, human
Description: Concentrated samples of the methylated and unmethylated AC dimer of PP2A were each serially diluted to final concentrations of 200 nM, 100 nM, 50 nM, 25 nM, and 12 nM. A buffer sample (with 0 nM PP2A) was used as the negative control. The dephosphorylation assay and western blotting were performed as described above in Example 31 Western blots were scanned on a Storm Scanner (Molecular Dynamics) and band intensities quantified with Image Quant software. The relative phosphorylation levels were calculated with the following formula: Relative phosphorylation level (%)=Signal of Sample/Signal of Negative Control*100%. Regression curves of relative phosphorylation levels as a function of PP2A concentration were plotted, and the EC50 values for methylated and unmethylated PP2A were estimated using the SigmaPlot program. The EC50 is a measure of phosphatase activity or dephosphorylation activity of PP2A toward phosphorylated alpha-synuclein. Specifically, it is the concentration of the AC dimer required to achieve 50% dephosphorylation of phosphorylated alpha-synuclein. […] Specifically, methylation reduces the EC50 value of PP2A AC dimer from ˜60 nM to ˜20 nM.

[6] = test system: serine 129 phosphorylated alpha-synuclein; assay: Dephosphorylation assay of human alpha-synuclein by PP2A and PP1; format: biochemical; details: Western blot
Description: Dephosphorylation Assay of Human a Synuclein by PP2A and PP1. […] PP2A or PP1 (serial dilutions of 200 nM, 100 nM, 50 nM, 25 nM, 12 nM, and O nM as a negative control) were incubated with serine 129 phosphorylated alpha-synuclein in MOPS buffer. The reactions were stopped by adding 5×SDS sample buffer. Levels of phosphorylated-alpha-synuclein were assessed by western blotting using an anti-phospho-Ser 129 antibody. […] Specifically, at 200 nM concentration, PP2A dephosphorylates more than 95% of the serine 129 phosphorylated alpha-synuclein.

T2 sequence (P67775 whole entry): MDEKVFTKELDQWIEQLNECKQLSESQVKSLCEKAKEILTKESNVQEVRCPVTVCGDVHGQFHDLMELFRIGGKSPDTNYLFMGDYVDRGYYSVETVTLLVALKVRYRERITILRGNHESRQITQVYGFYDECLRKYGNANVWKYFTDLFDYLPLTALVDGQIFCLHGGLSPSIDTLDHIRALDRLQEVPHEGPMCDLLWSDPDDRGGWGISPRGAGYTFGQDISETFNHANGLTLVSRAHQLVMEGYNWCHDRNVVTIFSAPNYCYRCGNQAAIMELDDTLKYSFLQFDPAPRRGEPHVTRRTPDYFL
T2 sequence (P30153 whole entry partner): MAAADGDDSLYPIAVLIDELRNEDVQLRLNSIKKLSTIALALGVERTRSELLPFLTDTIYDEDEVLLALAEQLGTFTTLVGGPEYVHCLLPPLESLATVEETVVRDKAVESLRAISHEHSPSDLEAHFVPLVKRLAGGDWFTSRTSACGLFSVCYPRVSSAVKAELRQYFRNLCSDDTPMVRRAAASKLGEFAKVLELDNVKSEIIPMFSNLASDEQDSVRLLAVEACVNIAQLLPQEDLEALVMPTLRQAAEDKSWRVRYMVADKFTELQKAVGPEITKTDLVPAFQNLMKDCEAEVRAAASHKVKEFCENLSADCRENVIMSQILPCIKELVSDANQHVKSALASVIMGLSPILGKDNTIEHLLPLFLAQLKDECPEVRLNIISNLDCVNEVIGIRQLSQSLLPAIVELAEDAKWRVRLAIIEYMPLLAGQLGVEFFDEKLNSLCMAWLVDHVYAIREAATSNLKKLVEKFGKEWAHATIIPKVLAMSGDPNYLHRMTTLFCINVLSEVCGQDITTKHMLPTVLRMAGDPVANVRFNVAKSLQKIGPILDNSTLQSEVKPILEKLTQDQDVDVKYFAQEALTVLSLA
T1 sequence (Q9UIC8 whole entry): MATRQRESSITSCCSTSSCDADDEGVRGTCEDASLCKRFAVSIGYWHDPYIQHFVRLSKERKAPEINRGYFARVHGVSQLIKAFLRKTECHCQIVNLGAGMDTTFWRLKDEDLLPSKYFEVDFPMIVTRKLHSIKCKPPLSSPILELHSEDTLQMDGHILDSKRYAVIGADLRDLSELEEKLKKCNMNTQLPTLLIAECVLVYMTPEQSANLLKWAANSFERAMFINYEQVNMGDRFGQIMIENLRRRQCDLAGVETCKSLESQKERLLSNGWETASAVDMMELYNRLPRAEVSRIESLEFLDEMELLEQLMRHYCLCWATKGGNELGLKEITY

IC50 [1]: 10 to 100 µM | IC50 (PP2A [2]): > 100 µM | IC50 (PP2A [3]): 10 to 100 µM | IC50 [4]: 10 to 100 µM
Compound: CCCCCCCCCCCCCCCCCCCCCC(=O)NCCc1c[nH]c2ccc(O)cc12 [Compound I-62, N-(2-(5-hydroxy-1H-indol-3-yl)ethyl)docosanamide]
lowering of phosphorylated tau levels in the brain compared to control (phosphorylated Tau): 40%

Compound: CN(CCOc1ccc(CC2SC(=O)NC2=O)cc1)c1ccccn1 (stereo not shown) [Rosiglitizone, reference compound]
reduction in non-fasted blood glucose levels (Ob/Ob Mice): 66%

EC50 ([5]; methylated AC dimer): ~0.02 µM | EC50 ([5]; unmethylated AC dimer): ~0.06 µM
Compound: PP2A: Protein phosphatase 2A, AC dimer (unmethylated or methylated), used as the enzyme dephosphorylating alpha-synuclein
dephosphorylation of serine 129 phosphorylated alpha-synuclein ([6]; 200 nM phosphatase): more than 95% | dephosphorylation of phosphorylated alpha-synuclein (concentration dependence) ([6]; 12-200 nM phosphatase): concentration dependent manner
